From paper PMC8637366 (Slas Discovery, 2021)
Where a name gives a salt, the structure may show the parent alone. Read-outs that look alike come from different tables or passages of the source.

Tests used:
Recombinant human BChE [1] = target: T1, Recombinant human BChE (Homo sapiens, UniProt P06276); test: biochemical; conditions: for Emax: read-out: BChE, % Efficacy
recombinant human AChE = recombinant human AChE (Homo sapiens, UniProt P22303); test: biochemical; format: biochemical; conditions: for Emax: read-out: AChE, % Efficacy
Recombinant human BChE [2] = target: T1, Recombinant human BChE; format: biochemical

T1 sequence (P06276 29-602): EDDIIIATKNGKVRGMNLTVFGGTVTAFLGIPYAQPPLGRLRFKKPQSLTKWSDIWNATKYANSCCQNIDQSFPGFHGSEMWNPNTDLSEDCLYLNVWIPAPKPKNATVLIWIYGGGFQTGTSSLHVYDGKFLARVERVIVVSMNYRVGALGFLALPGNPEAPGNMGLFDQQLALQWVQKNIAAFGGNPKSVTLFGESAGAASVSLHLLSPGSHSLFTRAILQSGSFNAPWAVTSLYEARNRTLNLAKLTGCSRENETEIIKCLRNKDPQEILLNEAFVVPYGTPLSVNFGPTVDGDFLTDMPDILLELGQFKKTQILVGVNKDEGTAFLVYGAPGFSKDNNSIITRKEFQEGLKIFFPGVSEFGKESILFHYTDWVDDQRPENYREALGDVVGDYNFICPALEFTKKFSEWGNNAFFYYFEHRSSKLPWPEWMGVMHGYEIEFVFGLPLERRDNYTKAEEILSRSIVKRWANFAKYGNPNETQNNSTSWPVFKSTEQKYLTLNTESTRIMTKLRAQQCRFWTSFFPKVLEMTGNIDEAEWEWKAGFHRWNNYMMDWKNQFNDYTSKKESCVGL
recombinant human AChE, sequence (P22303 32-614): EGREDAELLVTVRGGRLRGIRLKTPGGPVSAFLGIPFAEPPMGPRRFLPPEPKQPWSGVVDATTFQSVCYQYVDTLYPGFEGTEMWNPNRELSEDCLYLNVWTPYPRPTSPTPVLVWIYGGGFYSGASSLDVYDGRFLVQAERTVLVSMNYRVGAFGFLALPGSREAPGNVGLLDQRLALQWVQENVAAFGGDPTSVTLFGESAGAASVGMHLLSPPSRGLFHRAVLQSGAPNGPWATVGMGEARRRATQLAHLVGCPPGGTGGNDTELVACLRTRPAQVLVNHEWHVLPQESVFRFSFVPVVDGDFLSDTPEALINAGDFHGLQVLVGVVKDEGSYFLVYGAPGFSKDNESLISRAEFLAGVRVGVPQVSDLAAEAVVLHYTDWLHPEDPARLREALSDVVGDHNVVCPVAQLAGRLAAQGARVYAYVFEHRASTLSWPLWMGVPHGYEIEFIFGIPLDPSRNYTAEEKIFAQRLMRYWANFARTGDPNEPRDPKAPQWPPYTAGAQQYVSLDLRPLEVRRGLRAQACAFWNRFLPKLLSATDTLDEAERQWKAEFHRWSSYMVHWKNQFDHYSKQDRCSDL

Row | Compound | AChE, IC50 (recombinant human AChE) | IC50 (Recombinant human BChE [1]; BChE, IC50) [µM] | Emax (Recombinant human BChE [1]) [%] | further results
1 | COc1cc(O)ccc1OCCNCC(O)COc1cccc2[nH]c3ccccc3c12 (stereo not shown) [4-hydroxyphenyl carvedilol] | Inactive | – | – | BChE, % Efficacy (Recombinant human BChE [1]): 0.97 ± 0.11 (–100 ± 2.04) %; IC50 (Recombinant human BChE [1]; read-out: BChE, IC50): 0.97 µM
2 | Nc1c2ccccc2nc2ccccc12 [9-Aminoacridine monohydrochloride monohydrate] | – | 0.16 | -101 | –
3 | CCN(CCCc1ccccc1)CCCc1ccccc1 [Alverine citrate] | Inactive | 0.38 | -95 | –
4 | O=c1nc(-c2ccccn2)sc2ccccc12 [BTZO 1] | Inactive | – | – | BChE, % Efficacy (Recombinant human BChE [1]): 0.49 ± 0.25 (–94.6 ± 2.01) %; IC50 (Recombinant human BChE [1]; read-out: BChE, IC50): 0.49 µM
5 | CN(C)C(=O)Oc1cc(OC(=O)N(C)C)cc(C(O)CNC(C)(C)C)c1 (stereo not shown) [Bambuterol hydrochloride] | Inactive | 0.03 | -91.4 | –
6 | N#CC(c1ccnc(OCc2ccc(CN3CCOCC3)cc2)n1)c1nc2ccccc2s1 (stereo not shown) [Bentamapimod] | Inactive | 0.33 | -98.8 | AChE inhibition (recombinant human AChE): did not show AChE inhibition
7 | COc1ccc(CN(C(=O)[C@@H](N)Cc2c(C)cc(C(N)=O)cc2C)[C@@H](C)c2ncc(-c3ccccc3)[nH]2)cc1C(=O)O [Eluxadoline] | Inactive | 0.34 | -100 | –
8 | O=C(CN1CCN(Cc2ccc3c(c2)OCO3)CC1)N1c2ccccc2Sc2ccccc21 [Fenoverine] | Inactive | 0.09 | -97.3 | AChE inhibition (recombinant human AChE): did not show AChE inhibition
9 | Cc1c(Cl)c(=O)oc2cc(OP(=O)(OCCCl)OCCCl)ccc12 [Haloxon] | – | 0.03 | -91.2 | IC50 (recombinant human AChE): 0.32 µM; Emax (recombinant human AChE): -101%
10 | Clc1ccc(Nc2nc3ccccc3c3nc(C4CCCCC4)[nH]c23)cc1Cl [LUF6000] | – | – | – | inhibition against BChE in the fluorescent assay (Recombinant human BChE [2]): did not show inhibition
11 | Cc1c[nH]c2ncnc(N3CCC(CN)(C(=O)Nc4cccc(OC(=O)N(C)C)c4)CC3)c12 [LX-7101] | – | 0.22 | -96.6 | IC50 (recombinant human AChE): 7.71 µM; Emax (recombinant human AChE): -92.4%
12 | CCCCn1c(-c2ccccc2)nc(-c2ccccc2)c1CN(Cc1ccc2c(c1)OCO2)Cc1ccc2c(c1)OCO2 [NDT 9513727, N,N-Bis(1,3-benzodioxol-5-ylmethyl)-1-butyl-2,4-diphenyl-1H-imidazole-5-methanamine] | Inactive | 0.21 | -101 | AChE inhibition (recombinant human AChE): did not show AChE inhibition
13 | CN1CCc2cc(Cl)c(O)cc2[C@@H](c2cccc3c2OCC3)C1 [NNC 756] | Inactive | – | – | BChE, % Efficacy (Recombinant human BChE [1]): 0.84 ± 0.11 (–98.2 ± 6.31) %; IC50 (Recombinant human BChE [1]; read-out: BChE, IC50): 0.84 µM
14 | CN(C)C(=O)Oc1cccc([N+](C)(C)C)c1 [Neostigmine bromide] | – | 0.9 | -102 | Emax (recombinant human AChE): -94.6%
15 | CCCCCCCCCCC[C@@H](C[C@@H]1OC(=O)[C@H]1CCCCCC)OC(=O)[C@H](CC(C)C)NC=O [Orlistat] | – | 0.12 | -92.9 | Emax (recombinant human AChE): -80.5%
16 | CNC(=O)Oc1ccc2c(c1)[C@]1(C)CCN(C)[C@@H]1N2C [Physostigmine] | – | – | -98.4 | Emax (recombinant human AChE): -103%
17 | CC(C)OC(=O)C1=CN(C(=O)c2ccc(F)c(F)c2)CC(C)(C)c2c1[nH]c1ccccc21 [Turofexorate isopropyl] | Inactive | 0.29 | -98.5 | AChE inhibition (recombinant human AChE): did not show AChE inhibition
18 | CCN(CC)C(C)CN1c2ccccc2Sc2ccccc21 (stereo not shown) [ethopropazine hydrochloride, Ethopropazine hydrochloride] | – | 1.7 ± 0.53 | – | –
19 | Diethylumbelliferyl phosphate | – | – | – | AChE, % Efficacy (recombinant human AChE): 0.42 ± 0.03 (–98.6 ± 5.66) %
